Tested on: adult human keratinocytes
Experiment: In-vitro scratch wound-healing assay
Type: cell-based
Conditions: for closure of in vitro scratch wound gap: day 4, Example 9, FIG. 8B
Description: Human neonatal or adult keratinocytes late population doubling time (PD≧15) were trypsinized and seeded onto 6-well tissue culture plates (Falcon) at a density of 3×10^6 cells/well in HKGS (Cascade Biologics) and EpiLife (Cascade Biologics). After an overnight incubation in a 5% CO2 and 37° C. chamber, a bisecting scratch was made with a sterile p1000 micropipette tip and the cells were washed with PBS twice, and then replaced with the basal medium without the supplement for the duration of the assay.
Total extract, fractions and compounds of Rhizoma arisaematis were diluted in the basal medium without the supplement and added to the wells. EGF (Sigma) at 50 ng/mL was used as positive control, and DMSO (0.1%) was used as a vehicle control.
For each scratch, two consecutive fields were selected using the following criteria: relatively little cell debris within the scratch; even scratch, with straight edges; both edges visible under a single field using the 10× objective; fields not too close to either end of the scratch. The pictures were taken from day 1 for five consecutive days. The medium and the extracts were replenished daily for the duration of the assay.
To examine the efficacy of the herb Rhizoma arisaematis (RA) in in vitro closure of scratch wounds, human keratinocytes were incubated with the crude extract (RA-T) or different fractions of RA (100 μg/mL).
To examine the efficacy of the WA sub-fractions of RA in closing in vitro scratch wounds, RA-WA1 and RA-WA2 (1 μg/mL and 10 μg/mL) were tested using human keratinocytes. The scratch assay was performed using the procedures as described in Example 1. RA-WA1 and RA-WA2 at 1 μg/mL and 10 μg/mL were evaluated for their ability to close in vitro wound gap.
To examine the wound-healing effects, 3-O-(9,12-octadecadienoyl)-glyceryl-β-D-galactopyranoside (G192-C07) isolated from the BU fraction of RA (FIG. 8A) was incubated with human keratinocytes. The scratch assay was performed as described in Examples 1 and 5. G192-C07 at 1, 3, 10, and 30 μg/mL were evaluated for their ability to close in vitro wound gap. Epidermal growth factor (EGF, 10 ng/mL) and 0.1% DMSO were used as a positive and a vehicle control, respectively. Photographs of the wounds were taken immediately after the scratch and on day 4.

Compound | closure of in vitro scratch wound gap (1 μM) | closure of in vitro scratch wound gap (3 μM) | closure of in vitro scratch wound gap (10 μM) | closure of in vitro scratch wound gap (30 μM) | closure of in vitro scratch wound gap (positive control, 10 ng/mL) | closure of in vitro scratch wounds (positive control, 50 ng/mL, Example 1, FIG. 1)
CCCCC/C=C\C/C=C\CCCCCCCC(=O)OCC(O)CO[C@@H]1O[C@H](CO)[C@H](O)[C@H](O)[C@H]1O (stereo partly drawn) [Compound G192-C07, 3-O-(9Z,12Z-octadecadienoyl)-glyceryl-β-D-galactopyranoside] | partly closed the wound gap | partly closed the wound gap | partly closed the wound gap | fully closed the wounds by day 4 |  | 
EGF: Epidermal growth factor (Sigma), positive control (NSDSECPLSHDGYCLHDGVCMYIEALDKYACNCVVGYIGERCQYRDLKWWELR; Epidermal growth factor; UniProt P01133 971-1023, looked up) [reference compound] |  |  |  |  | fully closed the wounds by day 4 | closed the wounds by day 2
